Reference: US8916702B2 (priority 2012, dated 2014)
pEC50: −log10 of the molar value.

System: HCV pseudoparticles (genotype 1a HCV E1 and E2 envelope, H77C isolate)
Assay: microbe, parasite or virus in culture
Type: cell-based
Conditions: Hepatitis C virus, Huh-7, 48 h, HCV pseudoparticle infection of Huh7 cells, luciferase 2 days after infection; average of duplicates

Compound | pEC50
COC(=O)[C@H](CNC(=O)C(=O)NC1CCCCC1C)NC(=O)c1ccc(Nc2nc(NC3(c4ccc(Cl)cc4)CC3)nc(OCC(F)(F)F)n2)cc1 (some centres unmarked) [Compound 1061] | 8.80
COC(=O)[C@H](CNC(=O)C(=O)NCCc1cccnc1)NC(=O)c1ccc(Nc2nc(NC3(c4ccc(Cl)cc4)CC3)nc(OCC(F)(F)F)n2)cc1 [Compound 1293] | 8.36

Same assay, conditions: Hepatitis C virus, Huh-7, 48 h, HCV pseudoparticles (genotype 1a, H77C) in Huh7 cells; average of duplicate; luciferase 2 days after infection

Compound | pEC50
COC(=O)/C(CCNC(=O)C(=O)Nc1ccc(C)nc1)=N\C(=O)c1ccc(Nc2nc(NC3(c4ccc(Cl)cc4)CC3)nc(OCC(F)(F)F)n2)cc1 [Compound 3590] | 9.80

Same assay, conditions: Hepatitis C virus, Huh-7, 48 h, HCV pseudoparticles, Huh7 cells, luciferase 2 days after infection; average of duplicates

Compound | pEC50
Cc1ccc(NC(=O)C(=O)NCC(C)(C)CNC(=O)c2ccc(Nc3nc(NC4(c5ccc(Cl)cc5)CC4)nc(OCc4ccccc4F)n3)cc2)cc1 [Compound 3847] | 10.57
NC(=O)C(=O)NCC(CO)(CO)CNC(=O)c1ccc(Nc2nc(NC3(c4ccc(Cl)cc4)CC3)nc(OCC(F)(F)F)n2)cc1 [Compound 3838, N^1-(3-(4-((4-((1-(4-chlorophenyl)cyclopropyl)amino)-6-(2,2,2-trifluoroethoxy)-1,3,5-triazin-2-yl)amino)benzamido)-2,2-bis(hydroxymethyl)propyl)oxalamide] | 10.28
COC(=O)[C@H](CNC(=O)C(=O)Nc1cccc(Oc2ccccc2)c1)NC(=O)c1ccc(Nc2nc(NC3(c4ccc(Cl)cc4)CC3)nc(OCC(F)(F)F)n2)cc1 [Compound 3694] | 8.65

Same assay, conditions: Hepatitis C virus, Huh-7, 48 h, read-out: Activity (EC50 class), HCV pseudoparticle infection of Huh7 cells, luciferase 2 days after infection; EC50 expressed as class A/B

Compound | pEC50
C[C@@H](NC(=O)C(=O)NCC[C@H](NC(=O)c1ccc(Nc2nc(NC3(c4ccc(Cl)cc4)CC3)nc(OCC(F)(F)F)n2)cc1)C(=O)O)C1CC1 [Compound 1420] | 8.00 to 11.00
O=C(NCCc1cccnc1)C(=O)NC[C@H](NC(=O)c1ccc(Nc2nc(NC3(c4ccc(Cl)cc4)CC3)nc(OCC(F)(F)F)n2)cc1)C(=O)O [Compound 1405] | 8.00 to 11.00
CCc1ccc(NC(=O)C(=O)NCC(C)(C)CNC(=O)c2ccc(Nc3nc(NC4(c5ccc(Cl)cc5)CC4)nc(OCC(F)(F)F)n3)cc2)cc1 [Compound 1583] | 8.00 to 11.00
COC(=O)[C@H](CNC(=O)C(=O)NCc1ccc(F)cc1F)NC(=O)c1ccc(Nc2nc(NC3(c4ccc(Cl)cc4)CC3)nc(OCC(F)(F)F)n2)cc1 [Compound 1134] | 8.00 to 11.00
O=C(NC[C@H](NC(=O)c1ccc(Nc2nc(NC3(c4ccc(Cl)cc4)CC3)nc(OCC(F)(F)F)n2)cc1)C(=O)O)C(=O)NC1(C2CCCCC2)CC1 [Compound 1472] | 8.00 to 11.00
COC(=O)[C@H](CCNC(=O)C(=O)Nc1ccc(F)cc1F)NC(=O)c1ccc(Nc2nc(NC3(c4ccc(Cl)cc4)CC3)nc(OCC(F)(F)F)n2)cc1 [Compound 1501] | 8.00 to 11.00
COC(=O)[C@H](CCNC(=O)C(=O)Nc1cccnc1)NC(=O)c1ccc(Nc2nc(NC3(c4ccc(Cl)cc4)CC3)nc(OCC(F)(F)F)n2)cc1 [Compound 1238] | 8.00 to 11.00
COC(=O)[C@H](CCNC(=O)C(=O)NC1CCCC(NC(=O)OC(C)(C)C)C1)NC(=O)c1ccc(Nc2nc(NC3(c4ccc(Cl)cc4)CC3)nc(OCC(F)(F)F)n2)cc1 (some centres unmarked) [Compound 1097] | 8.00 to 11.00
COC(=O)[C@H](CNC(=O)C(=O)NC1CCCCC1C)NC(=O)c1ccc(Nc2nc(NC3(c4ccc(Cl)cc4)CC3)nc(OCC(F)(F)F)n2)cc1 (some centres unmarked) [Compound 1061] | 8.00 to 11.00
O=C(NC[C@H](NC(=O)c1ccc(Nc2nc(NC3(c4ccc(Cl)cc4)CC3)nc(OCC(F)(F)F)n2)cc1)C(=O)O)C(=O)NC1(Cc2ccccc2)CC1 [Compound 1415] | 8.00 to 11.00
COC(=O)[C@H](CNC(=O)C(=O)NCCc1cccnc1)NC(=O)c1ccc(Nc2nc(NC3(c4ccc(Cl)cc4)CC3)nc(OCC(F)(F)F)n2)cc1 [Compound 1293] | 8.00 to 11.00
COc1ccc(NC(=O)C(=O)NC[C@H](NC(=O)c2ccc(Nc3nc(NC4(c5ccc(Cl)cc5)CC4)nc(OCC(F)(F)F)n3)cc2)C(=O)O)cn1 [Compound 1349] | 8.00 to 11.00
COC(=O)[C@H](CCNC(=O)C(=O)Nc1ccccc1OC)NC(=O)c1ccc(Nc2nc(NC3(c4ccc(Cl)cc4)CC3)nc(OCC(F)(F)F)n2)cc1 [Compound 1234] | 8.00 to 11.00
O=C(NCC[C@H](NC(=O)c1ccc(Nc2nc(NC3(c4ccc(Cl)cc4)CC3)nc(OCC(F)(F)F)n2)cc1)C(=O)O)C(=O)NC1CCCCC1 [Compound 1179] | 8.00 to 11.00

Same assay, conditions: Hepatitis C virus, Huh-7, 48 h, read-out: Activity (EC50 class), HCV pseudoparticles, Huh7 cells, luciferase 2 days after infection; average of duplicates

Compound | pEC50
Cc1ccc(NC(=O)C(=O)NCC(C)(C)CNC(=O)c2ccc(Nc3nc(NC4(c5ccc(Cl)cc5)CC4)nc(OCc4ccccc4F)n3)cc2)cc1 [Compound 3847] | 8.00 to 11.00
NC(=O)C(=O)NCC(CO)(CO)CNC(=O)c1ccc(Nc2nc(NC3(c4ccc(Cl)cc4)CC3)nc(OCC(F)(F)F)n2)cc1 [Compound 3838, N^1-(3-(4-((4-((1-(4-chlorophenyl)cyclopropyl)amino)-6-(2,2,2-trifluoroethoxy)-1,3,5-triazin-2-yl)amino)benzamido)-2,2-bis(hydroxymethyl)propyl)oxalamide] | 8.00 to 11.00
COC(=O)[C@H](CNC(=O)C(=O)Nc1cccc(Oc2ccccc2)c1)NC(=O)c1ccc(Nc2nc(NC3(c4ccc(Cl)cc4)CC3)nc(OCC(F)(F)F)n2)cc1 [Compound 3694] | 8.00 to 11.00
O=C(NCC[C@H](NC(=O)c1ccc(Nc2nc(NC3(c4ccc(Cl)cc4)CC3)nc(OCC(F)(F)F)n2)cc1)C(=O)O)C(=O)Nc1ccc(N2CCOCC2)nc1 [Compound 3628] | 8.00 to 11.00
CC(C)(CNC(=O)C(=O)Nc1ccc(-c2cccc(F)c2)cc1)CNC(=O)c1ccc(Nc2nc(NC3(c4ccc(Cl)cc4)CC3)nc(OCC(F)(F)F)n2)cc1 [Compound 3797] | 8.00 to 11.00

Same assay, conditions: Hepatitis C virus, Huh-7, read-out: Activity (EC50 class), HCV pseudoparticles (genotype 1a, H77C) in Huh7 cells; EC50 expressed as class A/B

Compound | pEC50
COC(=O)/C(CCNC(=O)C(=O)Nc1ccc(C)nc1)=N\C(=O)c1ccc(Nc2nc(NC3(c4ccc(Cl)cc4)CC3)nc(OCC(F)(F)F)n2)cc1 [Compound 3590] | 8.00 to 11.00
CC(C)c1ccc(NC(=O)C(=O)NCC[C@H](NC(=O)c2ccc(Nc3nc(NC4(c5ccc(Cl)cc5)CC4)nc(OCC(F)(F)F)n3)cc2)C(=O)O)cc1 [Compound 3550] | 8.00 to 11.00
COC(=O)/C(CCNC(=O)C(=O)Nc1cccc(C(C)(C)C)c1)=N\C(=O)c1ccc(Nc2nc(NC3(c4ccc(Cl)cc4)CC3)nc(OCC(F)(F)F)n2)cc1 [Compound 3586] | 8.00 to 11.00
COC(=O)/C(CCNC(=O)C(=O)Nc1ccc(C(F)(F)F)nc1)=N\C(=O)c1ccc(Nc2nc(NC3(c4ccc(Cl)cc4)CC3)nc(OCC(F)(F)F)n2)cc1 [Compound 3594] | 8.00 to 11.00
CNC(=O)CCc1cccc(NC(=O)C(=O)NCC(C)(C)CNC(=O)c2ccc(Nc3nc(NC4(c5ccc(Cl)cc5)CC4)nc(OCC(F)(F)F)n3)cc2)c1 [Compound 3037] | 8.00 to 11.00
COc1cc(NC(=O)C(=O)NCC(C)(C)CNC(=O)c2ccc(Nc3nc(NC4(c5ccc(Cl)cc5)CC4)nc(OCC(F)(F)F)n3)cc2)ccn1 [Compound 3251] | 8.00 to 11.00
COC(=O)[C@H](CCNC(=O)C(=O)Nc1ccc(-c2ccno2)cc1)NC(=O)c1ccc(Nc2nc(NC3(c4ccc(Cl)cc4)CC3)nc(OCC(F)(F)F)n2)cc1 [Compound 3316] | 8.00 to 11.00
CCOc1ccc(NC(=O)C(=O)NCC[C@H](NC(=O)c2ccc(Nc3nc(NC4(c5ccc(Cl)cc5)CC4)nc(OCC(F)(F)F)n3)cc2)C(=O)OC)cc1 [Compound 3327] | 8.00 to 11.00
CC(CNC(=O)C(N)=O)CNC(=O)c1ccc(Nc2nc(NC3(c4ccc(Cl)cc4)CC3)nc(OCC(F)(F)F)n2)cc1 (centres unmarked) [Compound 3345] | 8.00 to 11.00
COC(=O)[C@H](CCNC(=O)C(=O)Nc1ccc(N2CCCC2=O)cc1)NC(=O)c1ccc(Nc2nc(NC3(c4ccc(Cl)cc4)CC3)nc(OCC(F)(F)F)n2)cc1 [Compound 3126] | 8.00 to 11.00
O=C(NC/C(=N/C(=O)c1ccc(Nc2nc(NC3(c4ccc(Cl)cc4)CC3)nc(OCC(F)(F)F)n2)cc1)C(=O)O)C(=O)Nc1ccc(N2CCCC2=O)cc1 [Compound 3165] | 8.00 to 11.00
O=C(NC[C@H](NC(=O)c1ccc(Nc2nc(NC3(c4ccc(Cl)cc4)CC3)nc(OCC(F)(F)F)n2)cc1)C(=O)O)C(=O)Nc1ccc(Cn2cccc2)cc1 [Compound 3280] | 8.00 to 11.00
O=C(NC/C(=N/C(=O)c1ccc(Nc2nc(NC3(c4ccc(Cl)cc4)CC3)nc(OCC(F)(F)F)n2)cc1)C(=O)O)C(=O)Nc1ccc(Oc2ccccc2)cc1 [Compound 3150] | 8.00 to 11.00
O=C(NC[C@H](NC(=O)c1ccc(Nc2nc(NC3(c4ccc(Cl)cc4)CC3)nc(OCC(F)(F)F)n2)cc1)C(=O)O)C(=O)Nc1ccc(-c2ccncc2)cc1 [Compound 3266] | 8.00 to 11.00
O=C(Nc1ccc(F)cc1)C(=O)N1CCCC(CNC(=O)c2ccc(Nc3nc(NC4(c5ccc(Cl)cc5)CC4)nc(OCC(F)(F)F)n3)cc2)C1 (centres unmarked) [Compound 3482] | 8.00 to 11.00
CN(CCCN(C)C(=O)c1ccc(Nc2nc(NC3(c4ccc(Cl)cc4)CC3)nc(OCC(F)(F)F)n2)cc1)C(=O)C(=O)Nc1ccccc1 [Compound 3428] | 8.00 to 11.00
